According to ChEMBL document CHEMBL5614427, “Discovery and Optimization of N-Heteroaryl Indazole LRRK2 Inhibitors” (J Med Chem, 2024):

Assays:
[1] = Lipophilicity, logD of compound at pH 7 by shake flask based HPLC method; type: physicochemical; conditions: buffer
[2] = Mean residence time in Wistar Han rat at 0.1 mg/kg, iv administered as cassette dosing measured upto 24 hrs by LC-MS/MS analysis; type: ADME, organism-based; conditions: in vivo
[3] = Ratio of unbound brain to plasma drug concentration in Wistar Han rat; type: ADME, cell-free; conditions: read-out: K(p,uu,brain)
[4] = AUC in rat at 100 mg/kg, po BID; type: ADME, organism-based; conditions: in vivo
[5] = Mean residence time in Wistar Han rat at 2 mg/kg, iv measured upto 24 hrs by LC-MS/MS analysis; type: ADME, organism-based; conditions: in vivo
[6] = Mean residence time in Beagle dog at 0.25 mg/kg, iv measured upto 24 hrs by LC-MS/MS analysis; type: ADME, organism-based, Canis lupus familiaris; conditions: in vivo
[7] = Oral bioavailability in Wistar Han rat at 10 mg/kg measured upto 24 hrs by LC-MS/MS analysis; type: ADME, organism-based; conditions: in vivo
[8] = Oral bioavailability in Beagle dog at 0.5 mg/kg measured upto 24 hrs by LC-MS/MS analysis; type: ADME, organism-based, Canis lupus familiaris; conditions: in vivo
[9] = Oral bioavailability in Wistar Han rat at 1 mg/kg measured upto 24 hrs by LC-MS/MS analysis; type: ADME, organism-based; conditions: in vivo
[10] = Ratio of unbound brain to plasma drug concentration in rhesus monkey; type: ADME, cell-free, Macaca mulatta; conditions: read-out: K(p,uu,brain)
[11] = Ratio of unbound CSF to plasma drug concentration in rhesus monkey; type: ADME, Macaca mulatta

Compound	logD [1]	MRT [2] [h]	other results
CC1(N2CCN(c3cc4c(cnn4-c4cnn(C56CC(C5)C6)c4)cc3Cl)CC2)COC1		3.4	
CC1(N2CCC(c3cc4c(cnn4-c4cnn(-c5ncc(F)cn5)c4)cc3Cl)CC2)COC1	3.3	3.3	
COCC12CC(n3cc(-n4ncc5cc(Cl)c(N6CCN(C7(C)COC7)CC6)cc54)cn3)(C1)C2		2.2	
CO[C@@H]1CCN(c2cc(-n3ncc4ccc([C@]5(C)CC56CC6)cc43)ncn2)C1		1	
Cn1ccc(-n2ncc3ccc([C@]4(C#N)CC45CC5)cc32)n1		0.8	Kp uu [3]: 1
COC12CC(n3cc(-n4ncc5cc(Cl)c(N6CCN(C7(C)COC7)CC6)cc54)cn3)(C1)C2		3.2	
CC1(N2CCN(c3cc4c(cnn4-c4cnn(C5CC5)c4)cc3Cl)CC2)COC1		2.8	
C[C@@]1(N2CCN(c3cc4c(cnn4-c4cnn(C56CC(C5)C6)c4)cc3Cl)CC2)COC[C@@H]1O			AUC [4]: 101 µM·h; MRT [5]: 5.8 h; MRT [6]: 12 h; Kp uu [3]: 0.4; bioavailability [7]: 48%
CCn1cc(-n2ncc3cc(Cl)c(C4CCN(C5(C)COC5)CC4)cc32)cn1	3.2	4	
CC1(N2CCN(c3cc4c(cnn4-c4cnn(C56CC(C(F)F)(C5)C6)c4)cc3Cl)CC2)COC1		2.7	
Cc1cc(-n2ncc3ccc([C@]4(C#N)CC45CC5)cc32)nc(C)n1		1	Kp uu [3]: 0.19
CC1(N2CCN(c3cc4c(cnn4-c4cnn(C56CC(C#N)(C5)C6)c4)cc3Cl)CC2)COC1		2.9	
Cc1nc(-n2ncc3ccc([C@]4(C#N)CC45CC5)cc32)cs1		0.8	Kp uu [3]: 0.5
Cn1ccc(-n2ncc3cc(Cl)c(C4CCN(C5COC5)CC4)cc32)n1		1.5	
CC1(N2CCN(c3cc4c(cnn4-c4cnn(-c5ncc(F)cn5)c4)cc3Cl)CC2)COC1	2.8	4.5	bioavailability [8]: 47%; MRT [6]: 17 h; bioavailability [9]: 88%

More lines, main results first:

logD [1]	MRT [2] [h]	Compound	other results
3.7	3.5	CC1(N2CCC(c3cc4c(cnn4-c4cnn(C(F)F)c4)cc3Cl)CC2)COC1	
2.8	3.4	Cn1cc(-n2ncc3cc(Cl)c(C4CCN(C5(C)COC5)CC4)cc32)cn1	
3.4	3.6	CC1(N2CCC(c3cc4c(cnn4-c4cnn(C5CC5)c4)cc3Cl)CC2)COC1	
	3.2	CC1(N2CCN(c3cc4c(cnn4-c4cnn(C5CC5)c4)cc3Cl)CC2)CCOC1 (stereo not given)	
	2.1	Cn1cc(-n2ncc3cc(Cl)c(C4CCN(C5COC5)CC4)cc32)cn1	bioavailability [8]: 59%; MRT [6]: 2.1 h; bioavailability [9]: 77%; Kp uu [3]: 0.4; Kp uu [10]: 0.9; Kp uu [11]: 1
3.5	4.1	CO[C@H]1C[C@H](n2cc(-n3ncc4cc(Cl)c(C5CCN(C6(C)COC6)CC5)cc43)cn2)C1	
	2.5	C[C@@]1(N2CCN(c3cc4c(cnn4-c4cnn(C5CC5)c4)cc3Cl)CC2)COC[C@@H]1O	
